{"source": "BindingDB's records for doi:10.1021/jm00019a006", "about": "(Glaxo Wellcome Medicines Research Centre, 1995)", "test": "The compound was tested for binding affinity against Tachykinin receptor 1 from rabbit cortex", "note": "pKi: −log10 of the molar value.", "data": [{"smiles": "O=C1OC2(CCN(CCc3c[nH]c4ccc(F)cc34)CC2)CN1Cc1ccccc1", "values": [{"measurement": "pKi", "value": 5.10}]}]}
